Each structure is given as a SMILES string.

The text below walks through data of EP0326329B1, “Quinazoline derivatives useful as insecticides” (Dow AgroSciences LLC, priority 1988, dated 1989).

The subject of the first experiment is Botrytis cinerea (gray mold). The experiment can be described thus: Greenhouse Test 1, foliar spray fungicide screen (GRAY MOLD), host grape berries. The format is in vivo. To be noted: disease control rating, 400 ppm (+++ at 100 ppm).
Turning to `c1ccc(CCCNc2nc(NCCCc3ccccc3)c3ccccc3n2)cc1` [Example 24, N,N'-bis(3-phenylpropyl)-2,4-quinazolinediamine], the “GRAY MOLD” value is reported as “- (- = 0-19% control at 400 ppm)”.
Still for that read-out and setting: under `CC(Cc1ccccc1)Nc1nc(NC(C)Cc2ccccc2)c2ccccc2n1` (stereo not drawn) [Example 26, N,N'-bis(1-methyl-2-phenylethyl)-2,4-quinazolinediamine] stands “- (- = 0-19% control at 400 ppm)”; under `CC(CNc1nc(NCC(C)c2ccccc2)c2ccccc2n1)c1ccccc1` (stereo not drawn) [Example 27, N,N'-bis(2-phenylpropyl)-2,4-quinazolinediamine], “- (- = 0-19% control at 400 ppm)”; under `Cc1ccc(CCNc2nc(NCCc3ccc(C)cc3)c3ccccc3n2)cc1` [Example 28, N,N'-bis[2-(4-methylphenyl)ethyl]-2,4-quinazolinediamine], “- (- = 0-19% control at 400 ppm)”.

The subject of a further experiment is Venturia inaequalis (apple scab). Briefly: Greenhouse Test 1, foliar spray fungicide screen (APPL SCAB), host apple seedling. To be noted: disease control rating, 400 ppm (+++ at 100 ppm). It is filed as in vivo.
In the case of `c1ccc(CCCNc2nc(NCCCc3ccccc3)c3ccccc3n2)cc1` [Example 24, N,N'-bis(3-phenylpropyl)-2,4-quinazolinediamine], the “APPL SCAB” value was “- (- = 0-19% control at 400 ppm)”.
Same read-out and setting: for `CC(Cc1ccccc1)Nc1nc(NC(C)Cc2ccccc2)c2ccccc2n1` (stereo not drawn) [Example 26, N,N'-bis(1-methyl-2-phenylethyl)-2,4-quinazolinediamine] the value was “- (- = 0-19% control at 400 ppm)”.
The same measure, in the same setting: for `CC(CNc1nc(NCC(C)c2ccccc2)c2ccccc2n1)c1ccccc1` (stereo not drawn) [Example 27, N,N'-bis(2-phenylpropyl)-2,4-quinazolinediamine] the value was “- (- = 0-19% control at 400 ppm)”; for `Cc1ccc(CCNc2nc(NCCc3ccc(C)cc3)c3ccccc3n2)cc1` [Example 28, N,N'-bis[2-(4-methylphenyl)ethyl]-2,4-quinazolinediamine], “- (- = 0-19% control at 400 ppm)”.

The next experiment has as its system melon aphids (Aphis gossypii Glover). Briefly: Mite/insect screen, sprayed squash cotyledons (MA). The note with it: Aphis gossypii, percent mortality; spray rate 200 ppm; read-out: MA RESULTS %. The format is in vivo. In short, it runs like this:
(§1)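 Percent mortality and phytotoxicity are the read-outs, assessed after standard exposure periods. Test solutions, made in 50:50 acetone/alcohol with two sulfonate/nonionic emulsifier blends and diluted in water, are sprayed to runoff on both leaf surfaces, which then dry for one hour.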
As for `c1ccc(CCCNc2nc(NCCCc3ccccc3)c3ccccc3n2)cc1` [Example 24, N,N'-bis(3-phenylpropyl)-2,4-quinazolinediamine], the mortality at 200 ppm was 0%.
On to `CC(Cc1ccccc1)Nc1nc(NC(C)Cc2ccccc2)c2ccccc2n1` (stereo not drawn) [Example 26, N,N'-bis(1-methyl-2-phenylethyl)-2,4-quinazolinediamine], for which the mortality at 200 ppm amounted to 0%.
On the same count and under the same terms, under `CC(CNc1nc(NCC(C)c2ccccc2)c2ccccc2n1)c1ccccc1` (stereo not drawn) [Example 27, N,N'-bis(2-phenylpropyl)-2,4-quinazolinediamine] stands 0%; under `Cc1ccc(CCNc2nc(NCCc3ccc(C)cc3)c3ccccc3n2)cc1` [Example 28, N,N'-bis[2-(4-methylphenyl)ethyl]-2,4-quinazolinediamine], 0%.

In a further experiment the test system is Southern corn rootworm (Diabrotica undecimpuctata howardi Barber). The experiment can be described thus: Mite/insect screen, soil treatment (CRW). It is filed as in vivo. To be noted: Diabrotica; percent mortality; soil treatment, CRW rate 12.00 ppm; read-out: CRW RESULTS %. In short, it runs like this:
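Five 2–3 instar larvae were placed on dry sandy soil with a presoaked corn seed after the soil had received 1 mL of compound solution and dried 6–12 h; cups were kept capped at 23°C. Mortality (%) and phytotoxicity were read after standard exposure. Formulation: acetone/alcohol with emulsifiers, water-diluted.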
`c1ccc(CCCNc2nc(NCCCc3ccccc3)c3ccccc3n2)cc1` [Example 24, N,N'-bis(3-phenylpropyl)-2,4-quinazolinediamine]: the mortality at 12 ppm is 0%.
Still for that read-out and setting: for `CC(Cc1ccccc1)Nc1nc(NC(C)Cc2ccccc2)c2ccccc2n1` (stereo not drawn) [Example 26, N,N'-bis(1-methyl-2-phenylethyl)-2,4-quinazolinediamine] the value was 0%; for `CC(CNc1nc(NCC(C)c2ccccc2)c2ccccc2n1)c1ccccc1` (stereo not drawn) [Example 27, N,N'-bis(2-phenylpropyl)-2,4-quinazolinediamine], 0%; for `Cc1ccc(CCNc2nc(NCCc3ccc(C)cc3)c3ccccc3n2)cc1` [Example 28, N,N'-bis[2-(4-methylphenyl)ethyl]-2,4-quinazolinediamine], 0%.

Another experiment deals with Erysiphe graminis tritici (powdery mildew). The experiment can be described thus: Greenhouse Test 1, foliar spray fungicide screen (POWD MDEW), host wheat. It is filed as in vivo. To be noted: disease control rating, 400 ppm (+++ at 100 ppm).
`c1ccc(CCCNc2nc(NCCCc3ccccc3)c3ccccc3n2)cc1` [Example 24, N,N'-bis(3-phenylpropyl)-2,4-quinazolinediamine]: the “POWD MDEW” value is reported as “+ (+ = 20-89% control at 400 ppm)”.
On to `CC(Cc1ccccc1)Nc1nc(NC(C)Cc2ccccc2)c2ccccc2n1` (stereo not drawn) [Example 26, N,N'-bis(1-methyl-2-phenylethyl)-2,4-quinazolinediamine], for which the “POWD MDEW” value is recorded as “- (- = 0-19% control at 400 ppm)”.
Same read-out and setting: under `CC(CNc1nc(NCC(C)c2ccccc2)c2ccccc2n1)c1ccccc1` (stereo not drawn) [Example 27, N,N'-bis(2-phenylpropyl)-2,4-quinazolinediamine] stands “- (- = 0-19% control at 400 ppm)”.
On to `Cc1ccc(CCNc2nc(NCCc3ccc(C)cc3)c3ccccc3n2)cc1` [Example 28, N,N'-bis[2-(4-methylphenyl)ethyl]-2,4-quinazolinediamine], for which the “POWD MDEW” value is listed as “- (- = 0-19% control at 400 ppm)”.

The test system of the next experiment is Twospotted spider mites (Tetranychus urticae Koch). Briefly: Mite/insect screen, sprayed squash cotyledons (SM). The format is in vivo. To be noted: Tetranychus urticae, percent mortality; spray rate 200 ppm; read-out: SM RESULTS %. In short, it runs like this: as §1
Turning to `c1ccc(CCCNc2nc(NCCCc3ccccc3)c3ccccc3n2)cc1` [Example 24, N,N'-bis(3-phenylpropyl)-2,4-quinazolinediamine], the mortality at 200 ppm was determined as 0%.
Regarding `CC(Cc1ccccc1)Nc1nc(NC(C)Cc2ccccc2)c2ccccc2n1` (stereo not drawn) [Example 26, N,N'-bis(1-methyl-2-phenylethyl)-2,4-quinazolinediamine], the mortality at 200 ppm was found to be 0%.
As for `CC(CNc1nc(NCC(C)c2ccccc2)c2ccccc2n1)c1ccccc1` (stereo not drawn) [Example 27, N,N'-bis(2-phenylpropyl)-2,4-quinazolinediamine], the mortality at 200 ppm worked out at 0%.
`Cc1ccc(CCNc2nc(NCCc3ccc(C)cc3)c3ccccc3n2)cc1` [Example 28, N,N'-bis[2-(4-methylphenyl)ethyl]-2,4-quinazolinediamine]: the mortality at 200 ppm came out at 0%.

Another experiment relates to Cercospora beticola (leaf spot). The experiment can be described thus: Greenhouse Test 1, foliar spray fungicide screen (LEAF SPOT), host sugar beet. The format is in vivo. The note with it: disease control rating, 400 ppm (+++ at 100 ppm).
Turning to `c1ccc(CCCNc2nc(NCCCc3ccccc3)c3ccccc3n2)cc1` [Example 24, N,N'-bis(3-phenylpropyl)-2,4-quinazolinediamine], the “LEAF SPOT” value is “- (- = 0-19% control at 400 ppm)”.
Same read-out and setting: under `CC(Cc1ccccc1)Nc1nc(NC(C)Cc2ccccc2)c2ccccc2n1` (stereo not drawn) [Example 26, N,N'-bis(1-methyl-2-phenylethyl)-2,4-quinazolinediamine] stands “+ (+ = 20-89% control at 400 ppm)”.
Turning to `CC(CNc1nc(NCC(C)c2ccccc2)c2ccccc2n1)c1ccccc1` (stereo not drawn) [Example 27, N,N'-bis(2-phenylpropyl)-2,4-quinazolinediamine], the “LEAF SPOT” value is reported as “- (- = 0-19% control at 400 ppm)”.
The same measure, in the same setting: for `Cc1ccc(CCNc2nc(NCCc3ccc(C)cc3)c3ccccc3n2)cc1` [Example 28, N,N'-bis[2-(4-methylphenyl)ethyl]-2,4-quinazolinediamine] the value was “- (- = 0-19% control at 400 ppm)”.

The next experiment relates to Pyricularia oryzae (rice blast).
Assay: not given
The format is in vivo. To be noted: disease control rating, foliar spray, host rice; 400 ppm (+++ at 100 ppm).
On to `c1ccc(CCCNc2nc(NCCCc3ccccc3)c3ccccc3n2)cc1` [Example 24, N,N'-bis(3-phenylpropyl)-2,4-quinazolinediamine], for which the “RICE BLAST” value is “+ (+ = 20-89% control at 400 ppm)”.
Consider `CC(Cc1ccccc1)Nc1nc(NC(C)Cc2ccccc2)c2ccccc2n1` (stereo not drawn) [Example 26, N,N'-bis(1-methyl-2-phenylethyl)-2,4-quinazolinediamine], for which the “RICE BLAST” value is “++ (++ = 90-100% control at 400 ppm)”.
Still for that read-out and setting: under `CC(CNc1nc(NCC(C)c2ccccc2)c2ccccc2n1)c1ccccc1` (stereo not drawn) [Example 27, N,N'-bis(2-phenylpropyl)-2,4-quinazolinediamine] stands “+ (+ = 20-89% control at 400 ppm)”.
On the same count and under the same terms, under `Cc1ccc(CCNc2nc(NCCc3ccc(C)cc3)c3ccccc3n2)cc1` [Example 28, N,N'-bis[2-(4-methylphenyl)ethyl]-2,4-quinazolinediamine] stands “+ (+ = 20-89% control at 400 ppm)”.

The test system of another experiment is Pseudoperonospora cubensis (downy mildew). The experiment can be described thus: Greenhouse Test 1, foliar spray fungicide screen (DOWN MDEW), host squash. It is filed as in vivo. The note with it: disease control rating, 400 ppm (+++ at 100 ppm).
Consider `c1ccc(CCCNc2nc(NCCCc3ccccc3)c3ccccc3n2)cc1` [Example 24, N,N'-bis(3-phenylpropyl)-2,4-quinazolinediamine], for which the “DOWN MDEW” value is recorded as “+++ (+++ = 90-100% control at 100 ppm)”.
Same read-out and setting: for `CC(Cc1ccccc1)Nc1nc(NC(C)Cc2ccccc2)c2ccccc2n1` (stereo not drawn) [Example 26, N,N'-bis(1-methyl-2-phenylethyl)-2,4-quinazolinediamine] the value was “+++ (+++ = 90-100% control at 100 ppm)”; for `CC(CNc1nc(NCC(C)c2ccccc2)c2ccccc2n1)c1ccccc1` (stereo not drawn) [Example 27, N,N'-bis(2-phenylpropyl)-2,4-quinazolinediamine], “+++ (+++ = 90-100% control at 100 ppm)”.
The same measure, in the same setting: for `Cc1ccc(CCNc2nc(NCCc3ccc(C)cc3)c3ccccc3n2)cc1` [Example 28, N,N'-bis[2-(4-methylphenyl)ethyl]-2,4-quinazolinediamine] the value was “+ (+ = 20-89% control at 400 ppm)”.

In the next experiment the test system is Puccinia recondita tritici (leaf rust). Briefly: Greenhouse Test 1, foliar spray fungicide screen (LEAF RUST), host wheat. The format is in vivo. To be noted: disease control rating, 400 ppm (+++ at 100 ppm).
Take `c1ccc(CCCNc2nc(NCCCc3ccccc3)c3ccccc3n2)cc1` [Example 24, N,N'-bis(3-phenylpropyl)-2,4-quinazolinediamine]: the “LEAF RUST” value is recorded as “+ (+ = 20-89% control at 400 ppm)”.
On the same count and under the same terms, for `CC(Cc1ccccc1)Nc1nc(NC(C)Cc2ccccc2)c2ccccc2n1` (stereo not drawn) [Example 26, N,N'-bis(1-methyl-2-phenylethyl)-2,4-quinazolinediamine] the value was “++ (++ = 90-100% control at 400 ppm)”; for `CC(CNc1nc(NCC(C)c2ccccc2)c2ccccc2n1)c1ccccc1` (stereo not drawn) [Example 27, N,N'-bis(2-phenylpropyl)-2,4-quinazolinediamine], “+ (+ = 20-89% control at 400 ppm)”; for `Cc1ccc(CCNc2nc(NCCc3ccc(C)cc3)c3ccccc3n2)cc1` [Example 28, N,N'-bis[2-(4-methylphenyl)ethyl]-2,4-quinazolinediamine], “++ (++ = 90-100% control at 400 ppm)”.

For another experiment, the system named is Septoria tritici (leaf blotch). Briefly: Greenhouse Test 1, foliar spray fungicide screen (LEAF BLOT), host wheat. The format is in vivo. The note with it: disease control rating, 400 ppm (+++ at 100 ppm).
Take `c1ccc(CCCNc2nc(NCCCc3ccccc3)c3ccccc3n2)cc1` [Example 24, N,N'-bis(3-phenylpropyl)-2,4-quinazolinediamine]: the “LEAF BLOT” value is listed as “- (- = 0-19% control at 400 ppm)”.
Regarding `CC(Cc1ccccc1)Nc1nc(NC(C)Cc2ccccc2)c2ccccc2n1` (stereo not drawn) [Example 26, N,N'-bis(1-methyl-2-phenylethyl)-2,4-quinazolinediamine], the “LEAF BLOT” value is “+ (+ = 20-89% control at 400 ppm)”.
The same measure, in the same setting: under `CC(CNc1nc(NCC(C)c2ccccc2)c2ccccc2n1)c1ccccc1` (stereo not drawn) [Example 27, N,N'-bis(2-phenylpropyl)-2,4-quinazolinediamine] stands “+ (+ = 20-89% control at 400 ppm)”; under `Cc1ccc(CCNc2nc(NCCc3ccc(C)cc3)c3ccccc3n2)cc1` [Example 28, N,N'-bis[2-(4-methylphenyl)ethyl]-2,4-quinazolinediamine], “- (- = 0-19% control at 400 ppm)”.

The subject of another experiment is southern armyworm (Spodopetra eridania Cramer). The experiment can be described thus: Mite/insect screen, sprayed squash leaves (SAW). The format is in vivo. The note with it: Spodoptera eridania, percent mortality; spray rate 200 ppm; read-out: SAW RESULTS %. In short, it runs like this: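 Mortality and phytotoxicity read after standard exposure periods on sprayed squash: cotyledons for melon aphids and twospotted spider mites, excised leaves placed with southern armyworm larvae. Spray solutions were water dilutions of acetone/alcohol stocks containing TOXIMUL R and S emulsifiers, applied to runoff at 10 psi and air-dried one hour.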
On to `c1ccc(CCCNc2nc(NCCCc3ccccc3)c3ccccc3n2)cc1` [Example 24, N,N'-bis(3-phenylpropyl)-2,4-quinazolinediamine], for which the mortality at 200 ppm is 0%.
The same measure, in the same setting: under `CC(Cc1ccccc1)Nc1nc(NC(C)Cc2ccccc2)c2ccccc2n1` (stereo not drawn) [Example 26, N,N'-bis(1-methyl-2-phenylethyl)-2,4-quinazolinediamine] stands 0%; under `CC(CNc1nc(NCC(C)c2ccccc2)c2ccccc2n1)c1ccccc1` (stereo not drawn) [Example 27, N,N'-bis(2-phenylpropyl)-2,4-quinazolinediamine], 0%.
The same measure, in the same setting: under `Cc1ccc(CCNc2nc(NCCc3ccc(C)cc3)c3ccccc3n2)cc1` [Example 28, N,N'-bis[2-(4-methylphenyl)ethyl]-2,4-quinazolinediamine] stands 0%.
